# Experimental data from the NIST ThermoML archive (doi:10.1016/j.fluid.2018.09.023).
# Numbers after ± are expanded uncertainties.
# Assay: not given
# Details: 298.15 K; 101.33 kPa; Liquid; Vibrating tube method
row,Compound,mass density [kg/m3]
1,CCOC(=O)OCC [diethyl carbonate],969.18 ± 0.07
2,CCCOC(=O)OCCC [dipropyl carbonate],938.35 ± 0.13
3,CCO [ethanol],785.02 ± 0.13

# Results, then the compound that gave them:
row,mass density [kg/m3],Compound
1,1063.26 ± 0.08,COC(=O)OC [dimethyl carbonate]
2,800.06 ± 0.12,CCCO [propan-1-ol]
3,780.79 ± 0.13,CC(C)O [propan-2-ol]

# Assay: Solid-liquid equilibrium temperature
# Details: 101 kPa, visual observation
row,Solid-liquid equilibrium temperature [K],Compound
1,278.11 ± 4,COC(=O)OC [dimethyl carbonate]
2,352.7 ± 4,O=C(Oc1ccccc1)Oc1ccccc1 [diphenyl carbonate]
